What was measured:
Type in all cases: biochemical
LCK = LCK (Homo sapiens, UniProt P06239); assay: Inhibition of a panel of kinases: LCK; conditions: kinase panel, Table 2
Method: (§1) The degree of inhibition of a panel of kinases is determined using assays similar to the kinase assay described in Example 53.

EGFR = EGFR (Homo sapiens, UniProt P00533); assay: Inhibition of a panel of kinases: EGFR; conditions: kinase panel, Table 2
Method: as §1

JAK3 = molecular target: T1, JAK3 (Homo sapiens, UniProt P52333); assay: Inhibition of a panel of kinases: JAK3; conditions: kinase panel, Table 2
T1 sequence (P52333 1-1124): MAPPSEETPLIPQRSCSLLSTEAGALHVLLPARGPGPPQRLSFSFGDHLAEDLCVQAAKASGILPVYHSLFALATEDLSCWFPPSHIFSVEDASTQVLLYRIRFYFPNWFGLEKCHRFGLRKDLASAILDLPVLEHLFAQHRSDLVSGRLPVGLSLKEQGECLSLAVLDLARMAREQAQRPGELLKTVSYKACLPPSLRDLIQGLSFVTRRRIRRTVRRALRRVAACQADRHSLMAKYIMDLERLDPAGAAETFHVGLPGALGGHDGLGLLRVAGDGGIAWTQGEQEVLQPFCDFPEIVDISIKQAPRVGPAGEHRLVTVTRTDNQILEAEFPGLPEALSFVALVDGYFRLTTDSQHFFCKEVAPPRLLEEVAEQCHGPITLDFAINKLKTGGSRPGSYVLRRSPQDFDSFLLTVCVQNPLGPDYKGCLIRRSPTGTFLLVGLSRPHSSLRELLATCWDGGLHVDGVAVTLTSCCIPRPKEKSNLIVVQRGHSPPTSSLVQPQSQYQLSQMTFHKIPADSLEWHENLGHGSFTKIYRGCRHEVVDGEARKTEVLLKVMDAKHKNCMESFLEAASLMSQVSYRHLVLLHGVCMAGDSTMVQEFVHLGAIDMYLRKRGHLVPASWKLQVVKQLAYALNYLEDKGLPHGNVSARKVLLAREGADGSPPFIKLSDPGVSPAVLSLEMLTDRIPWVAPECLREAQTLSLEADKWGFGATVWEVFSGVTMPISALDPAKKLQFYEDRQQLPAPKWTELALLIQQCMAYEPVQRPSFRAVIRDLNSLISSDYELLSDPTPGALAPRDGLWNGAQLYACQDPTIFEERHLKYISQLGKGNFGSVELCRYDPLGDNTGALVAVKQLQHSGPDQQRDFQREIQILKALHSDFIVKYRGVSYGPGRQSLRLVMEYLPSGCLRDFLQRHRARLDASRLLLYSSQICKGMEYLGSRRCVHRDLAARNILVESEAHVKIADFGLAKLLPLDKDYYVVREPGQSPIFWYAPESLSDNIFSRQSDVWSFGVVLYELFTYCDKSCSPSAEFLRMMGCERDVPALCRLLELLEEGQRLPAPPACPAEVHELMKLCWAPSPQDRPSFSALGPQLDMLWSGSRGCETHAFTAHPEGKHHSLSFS
Method: as §1

Btk [1] = molecular target: T2, Btk (Homo sapiens, UniProt Q06187); assay: Btk in vitro inhibitory activity (Method A, B or C); set-up: purified from insect cells as a full-length construct containing a N-terminal 6×-His tag; His6 (N); made in house; host or cells: insect cells (baculovirus, Sf21); conditions: one of the methods of Example 53a, 53b, 53c
Method: Btk kinase activity is determined using a time-resolved fluorescence resonance energy transfer (TR-FRET) methodology. Measurements are performed in a reaction volume of 50 μL using 96-well assay plates. Kinase enzyme, inhibitor, ATP (at the Km for the kinase), and 1 μM peptide substrate (Biotin-AVLESEEELYSSARQ-NH2 (SEQ ID NO: 1)) are incubated in a reaction buffer composed of 20 mM Tris, 50 mM NaCl, MgCl2 (5-25 mM depending on the kinase), MnCl2 (0-10 mM), 1 mM DTT, 0.1 mM EDTA, 0.01% bovine serum albumin, 0.005% Tween-20, and 10% DMSO at pH 7.4 for one hour. The reaction is quenched by the addition of 1.2 equivalents of EDTA (relative to divalent cation) in 25 μL of 1× Lance buffer (Perkin-Elmer). Streptavidin-APC (Perkin-Elmer) and Eu-labeled p-Tyr100 antibody (Perkin-Elmer) in 1× Lance buffer are added in a 25 μL volume to give final concentrations of 100 nM and 2.5 nM, respectively, and the mixture is allowed to incubate for one hour. The TR-FRET signal is measured on a multimode plate reader with an excitation wavelength (λEx) of 330 nm and detection wavelengths (λEm) of 615 and 665 nm. Activity is determined by the ratio of the fluorescence at 665 nm to that at 615 nm. For each compound, enzyme activity is measured at various concentrations of compound. Negative control reactions are performed in the absence of inhibitor in replicates of six, and two no-enzyme controls are used to determine baseline fluorescence levels. Inhibition constants, Ki(app), ware obtained using the program BatchKi (Kuzmic et al. (2000), Anal. Biochem. 286:45-50). IC50s are obtained according to the equation: IC50={Ki(app)/1+[ATP]/Km^ATP)}+[E]total/2;
For all kinases, [ATP]=Km^ATP, [Btk]total=0.5 nM and [Lck]total=6 nM.
Kinase activity is measured in vitro using electrophoretic mobility shift assay. The kinase reactions are assembled in a total volume of 25 μL in 384 well plates. The reactions comprise: BTK enzyme (1 nM, N-terminal His6-tagged, recombinant, full-length, human BTK purified from baculovirus Sf21 insect cell system), inhibitor, ATP (16 μM, the apparent Km for the kinase), fluorescently labeled peptide substrate (1 μM, FAM-GEEPLYWSFPAKKK-NH2 (SEQ ID NO: 2)) in a reaction buffer composed of 100 mM HEPES, pH7.5, 5 mM MgCl2 1 mM DTT, 0.1% bovine serum albumin, 0.01% Triton X-100, and 1% DMSO. The reaction is incubated for one hour and is quenched by the addition of 45 μL of termination buffer (100 mM HEPES, pH7.5, 0.01% Triton X-100, 30 mM EDTA). The terminated reactions are analyzed using 12 channel LabChip® 3000 microfluidic detection instrument (Caliper Life Sciences). The enzymatic phosphorylation of the peptide results in a change in net charge, enabling electrophoretic separation of product from substrate peptide. As substrate and product peptides are separated, two peaks of fluorescence are observed. Change in the relative fluorescence intensity of the substrate and product peaks is the parameter measured, reflecting enzyme activity. In the presence of an inhibitor, the ratio between product and substrate is altered: the signal of the product decreases, while the signal of the substrate increases.
Activity in each sample is determined as the product to sum ratio (PSR):P/(S+P), where P is the peak height of the product peptide and S is the peak height of the substrate peptide. For each compound, enzyme activity is measured at various concentrations (12 concentrations of compound spaced by 3× dilution intervals). Negative control samples (0%−inhibition in the absence of inhibitor) and positive control samples (100%−inhibition, in the presence of 20 mM EDTA) are assembled in replicates of four and are used to calculate %−inhibition values for each inhibitor at each concentration. Percent inhibition (Pinh) is determined using following equation: […]

Btk [2] = molecular target: T2, Btk; assay: Inhibition of a panel of kinases: Btk; conditions: kinase panel, Table 2
Method: as §1

Chain of EGFR (P00533 25-1210, species assumed): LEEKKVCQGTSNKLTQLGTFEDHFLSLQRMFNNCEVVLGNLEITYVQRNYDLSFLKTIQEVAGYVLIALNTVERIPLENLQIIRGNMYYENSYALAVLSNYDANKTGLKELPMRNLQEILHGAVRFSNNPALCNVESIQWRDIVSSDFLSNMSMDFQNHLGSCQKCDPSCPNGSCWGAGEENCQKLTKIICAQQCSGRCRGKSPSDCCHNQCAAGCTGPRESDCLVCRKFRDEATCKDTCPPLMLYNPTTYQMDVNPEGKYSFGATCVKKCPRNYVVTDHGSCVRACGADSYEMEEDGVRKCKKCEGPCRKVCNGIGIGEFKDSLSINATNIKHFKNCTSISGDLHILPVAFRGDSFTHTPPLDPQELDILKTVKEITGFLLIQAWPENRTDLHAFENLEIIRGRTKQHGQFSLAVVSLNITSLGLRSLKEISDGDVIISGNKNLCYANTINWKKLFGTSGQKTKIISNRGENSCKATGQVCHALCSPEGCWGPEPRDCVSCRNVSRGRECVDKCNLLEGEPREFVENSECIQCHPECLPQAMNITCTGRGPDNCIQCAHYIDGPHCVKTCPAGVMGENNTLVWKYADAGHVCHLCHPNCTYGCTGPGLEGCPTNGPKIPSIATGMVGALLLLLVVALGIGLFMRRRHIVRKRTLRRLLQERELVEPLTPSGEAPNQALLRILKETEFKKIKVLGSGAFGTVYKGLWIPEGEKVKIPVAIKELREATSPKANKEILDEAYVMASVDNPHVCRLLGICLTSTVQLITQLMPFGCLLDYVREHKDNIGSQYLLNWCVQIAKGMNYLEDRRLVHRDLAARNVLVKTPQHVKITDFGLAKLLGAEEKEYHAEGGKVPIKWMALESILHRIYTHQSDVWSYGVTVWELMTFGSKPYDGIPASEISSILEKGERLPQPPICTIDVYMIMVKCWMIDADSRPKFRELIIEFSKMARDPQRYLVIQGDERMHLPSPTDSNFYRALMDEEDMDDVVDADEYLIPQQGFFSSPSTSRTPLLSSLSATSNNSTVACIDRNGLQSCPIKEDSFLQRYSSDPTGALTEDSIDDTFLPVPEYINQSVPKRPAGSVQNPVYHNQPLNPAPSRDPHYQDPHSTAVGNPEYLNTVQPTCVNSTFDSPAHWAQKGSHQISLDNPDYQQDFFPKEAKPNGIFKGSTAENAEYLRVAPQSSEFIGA
Chain of LCK (P06239 whole entry, species assumed): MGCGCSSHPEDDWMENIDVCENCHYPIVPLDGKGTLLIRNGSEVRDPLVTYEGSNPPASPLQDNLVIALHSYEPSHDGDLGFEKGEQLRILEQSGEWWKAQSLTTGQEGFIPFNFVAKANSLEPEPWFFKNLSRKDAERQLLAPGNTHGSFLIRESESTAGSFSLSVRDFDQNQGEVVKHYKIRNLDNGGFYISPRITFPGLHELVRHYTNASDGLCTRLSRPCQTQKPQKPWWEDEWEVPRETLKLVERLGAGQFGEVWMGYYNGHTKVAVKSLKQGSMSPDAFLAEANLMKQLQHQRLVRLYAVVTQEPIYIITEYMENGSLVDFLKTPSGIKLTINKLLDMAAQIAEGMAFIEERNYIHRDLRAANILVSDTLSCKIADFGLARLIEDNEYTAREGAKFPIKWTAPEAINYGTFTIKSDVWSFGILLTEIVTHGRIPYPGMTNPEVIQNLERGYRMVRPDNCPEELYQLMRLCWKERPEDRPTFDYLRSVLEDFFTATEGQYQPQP
T2 sequence (Q06187 whole entry): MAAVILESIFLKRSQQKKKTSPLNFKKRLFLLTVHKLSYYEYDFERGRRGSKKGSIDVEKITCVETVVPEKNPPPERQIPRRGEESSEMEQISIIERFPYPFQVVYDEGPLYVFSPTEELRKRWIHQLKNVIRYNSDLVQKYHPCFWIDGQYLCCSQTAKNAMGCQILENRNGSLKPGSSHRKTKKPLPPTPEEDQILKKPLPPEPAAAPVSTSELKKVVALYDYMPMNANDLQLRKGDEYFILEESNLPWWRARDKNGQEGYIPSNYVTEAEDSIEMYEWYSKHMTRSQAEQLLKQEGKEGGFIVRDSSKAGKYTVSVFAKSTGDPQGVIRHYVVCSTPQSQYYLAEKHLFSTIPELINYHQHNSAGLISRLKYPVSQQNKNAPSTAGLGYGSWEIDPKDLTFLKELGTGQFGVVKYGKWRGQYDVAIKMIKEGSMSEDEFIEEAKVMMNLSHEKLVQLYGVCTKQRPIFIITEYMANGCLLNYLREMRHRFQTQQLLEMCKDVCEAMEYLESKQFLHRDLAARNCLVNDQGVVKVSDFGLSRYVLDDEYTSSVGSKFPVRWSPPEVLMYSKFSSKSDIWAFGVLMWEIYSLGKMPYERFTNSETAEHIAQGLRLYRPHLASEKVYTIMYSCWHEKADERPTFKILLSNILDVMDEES

| IC50 (LCK) [nM] | IC50 (EGFR) [nM] | IC50 (JAK3) [nM] | IC50 (Btk [1]) [nM] | IC50 (Btk [2]) [nM] | Structure (SMILES) |
| --- | --- | --- | --- | --- | --- |
| 100 to 1000 | 100 to 1000 | > 1000 | ≤ 10 | ≤ 10 | CC#CC(=O)N1CC[C@@H](n2nc(-c3ccc(C(=O)Nc4cc(C(F)(F)F)ccn4)cc3)c3c(N)ncnc32)C1 [Compound ID 1, (R)-4-(4-amino-1-(1-but-2-ynoylpyrrolidin-3-yl)-1H-pyrazolo[3,4-d]pyrimidin-3-yl)-N-(4-(trifluoromethyl)pyridin-2-yl)benzamide] |
| 100 to 1000 | > 1000 | > 1000 | ≤ 10 | ≤ 10 | CC#CC(=O)N1CC[C@@H](n2nc(-c3ccc(C(=O)Nc4cc(C)ccn4)cc3)c3c(N)ncnc32)C1 [Compound ID 2, (R)-4-(4-amino-1-(1-but-2-ynoylpyrrolidin-3-yl)-1H-pyrazolo[3,4-d]pyrimidin-3-yl)-N-(4-methylpyridin-2-yl)benzamide] |
| 10 to 100 | 100 to 1000 | > 1000 | ≤ 10 | ≤ 10 | CC#CC(=O)N1CC[C@@H](n2nc(-c3ccc(C(=O)Nc4ccccn4)cc3)c3c(N)ncnc32)C1 [Compound ID 3, (R)-4-(4-amino-1-(1-but-2-ynoylpyrrolidin-3-yl)-1H-pyrazolo[3,4-d]pyrimidin-3-yl)-N-(pyridin-2-yl)benzamide] |
| 100 to 1000 | > 1000 | > 1000 | ≤ 10 | ≤ 10 | CC#CC(=O)N1CC[C@@H](n2nc(-c3ccc(C(=O)Nc4cc(C(C)C)ccn4)cc3)c3c(N)ncnc32)C1 [Compound ID 4, (R)-4-(4-amino-1-(1-but-2-ynoylpyrrolidin-3-yl)-1H-pyrazolo[3,4-d]pyrimidin-3-yl)-N-(4-isopropylpyridin-2-yl)benzamide] |
| 100 to 1000 | > 1000 | > 1000 | ≤ 10 | ≤ 10 | CC#CC(=O)N1CC[C@@H](n2nc(-c3ccc(C(=O)Nc4cc(C#N)ccn4)cc3)c3c(N)ncnc32)C1 [Compound ID 5, (R)-4-(4-amino-1-(1-but-2-ynoylpyrrolidin-3-yl)-1H-pyrazolo[3,4-d]pyrimidin-3-yl)-N-(4-cyanopyridin-2-yl)benzamide] |
| 100 to 1000 | > 1000 | > 1000 | ≤ 10 | ≤ 10 | CC#CC(=O)N1CCC[C@@H](n2nc(-c3ccc(C(=O)Nc4cc(C(C)C)ccn4)cc3)c3c(N)ncnc32)C1 [Compound ID 6, (R)-4-(4-amino-1-(1-but-2-ynoylpiperidin-3-yl)-1H-pyrazolo[3,4-d]pyrimidin-3-yl)-N-(4-isopropylpyridin-2-yl)benzamide] |
| > 1000 | > 1000 | > 1000 | ≤ 10 | ≤ 10 | CCC#CC(=O)N1CC[C@@H](n2nc(-c3ccc(C(=O)Nc4cc(C)ccn4)cc3)c3c(N)ncnc32)C1 [Compound ID 7, (R)-4-(4-amino-1-(1-pent-2-ynoylpyrrolidin-3-yl)-1H-pyrazolo[3,4-d]pyrimidin-3-yl)-N-(4-methylpyridin-2-yl)benzamide] |
| > 1000 | 100 to 1000 | > 1000 | ≤ 10 | ≤ 10 | Cc1ccnc(NC(=O)c2ccc(-c3nn([C@@H]4CCN(C(=O)C#CC5CC5)C4)c4ncnc(N)c34)cc2)c1 [Compound ID 8, (R)-4-(4-amino-1-(1-(3-cyclopropylpropioloyl)pyrrolidin-3-yl)-1H-pyrazolo[3,4-d]pyrimidin-3-yl)-N-(4-methylpyridin-2-yl)benzamide] |
| 10 to 100 | 10 to 100 |  | ≤ 10 | ≤ 10 | CC#CC(=O)N1CCC[C@@H](n2nc(-c3ccc(C(=O)Nc4nccs4)cc3)c3c(N)ncnc32)C1 [Compound ID 16, (R)-4-(4-amino-1-(1-but-2-ynoylpiperidin-3-yl)-1H-pyrazolo[3,4-d]pyrimidin-3-yl)-N-(thiazol-2-yl)benzamide] |
| 100 to 1000 | ≤ 10 |  | ≤ 10 | ≤ 10 | CC#CC(=O)N1CCC[C@@H](n2nc(-c3ccc(C(=O)Nc4ncc(C)s4)cc3)c3c(N)ncnc32)C1 [Compound ID 17, (R)-4-(4-amino-1-(1-but-2-ynoylpiperidin-3-yl)-1H-pyrazolo[3,4-d]pyrimidin-3-yl)-N-(5-methylthiazol-2-yl)benzamide] |
| 100 to 1000 | ≤ 10 |  | ≤ 10 | ≤ 10 | C=CC(=O)N1CC[C@@H](n2nc(-c3ccc(C(=O)Nc4ccccn4)cc3)c3c(N)ncnc32)C1 [Compound ID 22, (R)-4-(1-(1-acryloylpyrrolidin-3-yl)-4-amino-1H-pyrazolo[3,4-d]pyrimidin-3-yl)-N-(pyridin-2-yl)benzamide] |
